{
  "source": "the supplement of paper PMC9663587",
  "key": {"[1]": {"compound": "CCc1cnn2c(NCc3ccc[n+]([O-])c3)cc(N3CCCC[C@H]3CCO)nc12", "assay": "GR value, 72 h; higher = faster growth (1 = untreated, <0 = killing);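 also: breast cancer and non-malignant breast epithelial lines, nine half-log doses, viable cells counted by Hoechst and LIVE/DEAD dye imaging versus time-zero plates and DMSO controls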"}, "[2]": {"compound": "CC(=O)c1c(C)c2cnc(Nc3ccc(N4CCNCC4)cn3)nc2n(C2CCCC2)c1=O", "assay": "GR value, 72 h; higher = faster growth (1 = untreated, <0 = killing)"}, "[3]": {"compound": "CCOc1cc2ncc(C#N)c(Nc3ccc(OCc4ccccn4)c(Cl)c3)c2cc1NC(=O)/C=C/CN(C)C [Neratinib/HKI272]", "assay": "GR value, 72 h; higher = faster growth (1 = untreated, <0 = killing)"}, "[4]": {"compound": "CC(=O)c1c(C)c2cnc(Nc3ccc(N4CCN(CCOCCOCCOCCNC(=O)COc5cccc6c5C(=O)N(C5CCC(=O)NC5=O)C6=O)CC4)cn3)nc2n(C2CCCC2)c1=O [BSJ-03-123]", "assay": "GR value, 72 h; higher = faster growth (1 = untreated, <0 = killing)"}, "[5]": {"compound": "CCN1CCN(Cc2ccc(Nc3ncc(F)c(-c4cc(F)c5nc(C)n(C(C)C)c5c4)n3)nc2)CC1", "assay": "increase in dead-cell fraction, 72 h; higher = more death;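 also: breast cancer cell lines in 384-well plates, stained with Hoechst plus LIVE/DEAD far red dye and imaged, cells above an LDR intensity threshold counted dead, Hoechst-negative corpses included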"}, "[6]": {"compound": "CN1CC[C@H](c2c(O)cc(O)c3c(=O)cc(-c4ccccc4Cl)oc23)[C@H](O)C1 [Flavopiridol]", "assay": "increase in dead-cell fraction, 72 h; higher = more death"}},
  "data": [
    {"cell line": "CAL851", "values": [
      {"measurement": "GR value", "setting": "[1]; 0.0001 µM", "result": 0.97, "unit": "GR"},
      {"measurement": "GR value", "setting": "[1]; 0.0003162 µM", "result": 1.08, "unit": "GR"},
      {"measurement": "GR value", "setting": "[1]; 0.001 µM", "result": 0.982, "unit": "GR"},
      {"measurement": "GR value", "setting": "[1]; 0.003162 µM", "result": 0.681, "unit": "GR"},
      {"measurement": "GR value", "setting": "[1]; 0.01 µM", "result": 0.0301, "unit": "GR"},
      {"measurement": "GR value", "setting": "[1]; 0.03162 µM", "result": -0.178, "unit": "GR"},
      {"measurement": "GR value", "setting": "[1]; 0.1 µM", "result": -0.234, "unit": "GR"},
      {"measurement": "GR value", "setting": "[1]; 0.3162 µM", "result": -0.213, "unit": "GR"},
      {"measurement": "GR value", "setting": "[1]; 1 µM", "result": -0.239, "unit": "GR"},
      {"measurement": "GR value", "setting": "[2]; 0.0003162 µM", "result": 1.05, "unit": "GR"},
      {"measurement": "GR value", "setting": "[2]; 0.001 µM", "result": 1.07, "unit": "GR"},
      {"measurement": "GR value", "setting": "[2]; 0.003162 µM", "result": 1.13, "unit": "GR"},
      {"measurement": "GR value", "setting": "[2]; 0.01 µM", "result": 1.09, "unit": "GR"},
      {"measurement": "GR value", "setting": "[2]; 0.03162 µM", "result": 1.17, "unit": "GR"},
      {"measurement": "GR value", "setting": "[2]; 0.1 µM", "result": 1.06, "unit": "GR"},
      {"measurement": "GR value", "setting": "[2]; 0.3162 µM", "result": 0.993, "unit": "GR"},
      {"measurement": "GR value", "setting": "[2]; 1 µM", "result": 1.07, "unit": "GR"},
      {"measurement": "GR value", "setting": "[2]; 3.162 µM", "result": 1.07, "unit": "GR"},
      {"measurement": "GR value", "setting": "[3]; 0.0003162 µM", "result": 1.04, "unit": "GR"},
      {"measurement": "GR value", "setting": "[3]; 0.001 µM", "result": 0.993, "unit": "GR"},
      {"measurement": "GR value", "setting": "[3]; 0.003162 µM", "result": 0.881, "unit": "GR"},
      {"measurement": "GR value", "setting": "[3]; 0.01 µM", "result": 0.747, "unit": "GR"},
      {"measurement": "GR value", "setting": "[3]; 0.03162 µM", "result": 0.435, "unit": "GR"},
      {"measurement": "GR value", "setting": "[3]; 0.1 µM", "result": 0.226, "unit": "GR"},
      {"measurement": "GR value", "setting": "[3]; 0.3162 µM", "result": 0.109, "unit": "GR"},
      {"measurement": "GR value", "setting": "[3]; 1 µM", "result": -0.0501, "unit": "GR"},
      {"measurement": "GR value", "setting": "[3]; 3.162 µM", "result": -0.322, "unit": "GR"},
      {"measurement": "GR value", "setting": "[4]; 0.001 µM", "result": 1.15, "unit": "GR"},
      {"measurement": "GR value", "setting": "[4]; 0.003162 µM", "result": 0.948, "unit": "GR"},
      {"measurement": "GR value", "setting": "[4]; 0.01 µM", "result": 0.849, "unit": "GR"},
      {"measurement": "GR value", "setting": "[4]; 0.03162 µM", "result": 0.839, "unit": "GR"},
      {"measurement": "GR value", "setting": "[4]; 0.1 µM", "result": 0.601, "unit": "GR"},
      {"measurement": "GR value", "setting": "[4]; 0.3162 µM", "result": 0.599, "unit": "GR"},
      {"measurement": "GR value", "setting": "[4]; 1 µM", "result": 0.447, "unit": "GR"},
      {"measurement": "GR value", "setting": "[4]; 3.162 µM", "result": 0.209, "unit": "GR"},
      {"measurement": "GR value", "setting": "[4]; 10 µM", "result": -0.238, "unit": "GR"},
      {"measurement": "increase in dead-cell fraction", "setting": "[5]; 0.001 µM", "result": -0.0049},
      {"measurement": "increase in dead-cell fraction", "setting": "[5]; 0.003162 µM", "result": -0.0095},
      {"measurement": "increase in dead-cell fraction", "setting": "[5]; 0.01 µM", "result": -0.0073},
      {"measurement": "increase in dead-cell fraction", "setting": "[5]; 0.03162 µM", "result": -0.0136},
      {"measurement": "increase in dead-cell fraction", "setting": "[5]; 0.1 µM", "result": -0.0173},
      {"measurement": "increase in dead-cell fraction", "setting": "[5]; 0.3162 µM", "result": -0.0161},
      {"measurement": "increase in dead-cell fraction", "setting": "[5]; 1 µM", "result": 0.0209},
      {"measurement": "increase in dead-cell fraction", "setting": "[5]; 3.162 µM", "result": 0.211},
      {"measurement": "increase in dead-cell fraction", "setting": "[5]; 10 µM", "result": 0.266},
      {"measurement": "increase in dead-cell fraction", "setting": "[6]; 0.0001 µM", "result": -0.0044},
      {"measurement": "increase in dead-cell fraction", "setting": "[6]; 0.0003162 µM", "result": 0.0036},
      {"measurement": "increase in dead-cell fraction", "setting": "[6]; 0.001 µM", "result": 0.0039},
      {"measurement": "increase in dead-cell fraction", "setting": "[6]; 0.003162 µM", "result": -0.0035},
      {"measurement": "increase in dead-cell fraction", "setting": "[6]; 0.01 µM", "result": 0.0021},
      {"measurement": "increase in dead-cell fraction", "setting": "[6]; 0.03162 µM", "result": 0.001},
      {"measurement": "increase in dead-cell fraction", "setting": "[6]; 0.1 µM", "result": 0.0068},
      {"measurement": "increase in dead-cell fraction", "setting": "[6]; 0.3162 µM", "result": 0.0514},
      {"measurement": "increase in dead-cell fraction", "setting": "[6]; 1 µM", "result": 0.103}
    ]}
  ]
}
